Assay results: patent US9850283B2, “Macrocyclic inhibitors of the PD-1/PD-L1 and CD80(B7-1)/PD-L1 protein/protein interactions” (BRISTOL-MYERS SQUIBB COMPANY, priority 2013, dated 2017)
Positions of bridges follow the written chain, without caps; N, C: chain ends. Non-standard residues stand in square brackets, D forms with d. Residues, ends and D or L forms follow the SMILES beside them. ξ: configuration not given here. Phe(4-CH2NH2) = NCc1ccc(C[C@H](N)C(=O)O)cc1; Phe(4-F) = N[C@@H](Cc1ccc(F)cc1)C(=O)O; 1Nal = N[C@@H](Cc1cccc2ccccc12)C(=O)O; ξPhe(βξ-Me) = CC(c1ccccc1)C(N)C(=O)O; NMeF = CN[C@@H](Cc1ccccc1)C(=O)O; NMeNle = CCCC[C@H](NC)C(=O)O; Sar = CNCC(=O)O

Columns and labels:
Human PD-L1/PD-1 = target: T1, Human PD-L1/PD-1 (Homo sapiens, UniProt Q9NZQ7); experiment: HTRF PD-1-Ig/PD-L1-His binding assay (human PD-L1); details: cluster symbol; read-out: HTRF IC50 cluster
T1 construct: made in house; host or cells: HEK293T
T1 sequence (Q9NZQ7 with tags, fused parts or gaps): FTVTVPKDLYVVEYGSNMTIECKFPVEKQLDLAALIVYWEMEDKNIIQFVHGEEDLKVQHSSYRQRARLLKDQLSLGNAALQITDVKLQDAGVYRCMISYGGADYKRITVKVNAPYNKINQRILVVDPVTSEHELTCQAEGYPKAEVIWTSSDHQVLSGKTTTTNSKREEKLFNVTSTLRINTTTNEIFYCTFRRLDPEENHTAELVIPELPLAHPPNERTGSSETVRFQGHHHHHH
In short: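 Interaction of Fc-tagged soluble PD-1 with His-tagged soluble PD-L1 is monitored by time-resolved FRET. Donor is europium cryptate anti-Ig (1 nM final) and acceptor is APC anti-His (20 nM final). Assay buffer is dPBS with 0.1% BSA and 0.05% Tween-20.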

[1] = target: T2, LK35.2-hPD-L1 cells / PE-labeled PD-1-Ig (Homo sapiens, UniProt Q9NZQ7); experiment: LK35.2-hPD-L1 cell binding high-content screening assay; format: cell-based; details: cell binding assay, cell line not given; cluster symbol; read-out: CBA IC50 cluster
T2 construct: expressed in transfected cells; host or cells: LK35.2 mouse B cell line
T2 sequence (Q9NZQ7 19-290): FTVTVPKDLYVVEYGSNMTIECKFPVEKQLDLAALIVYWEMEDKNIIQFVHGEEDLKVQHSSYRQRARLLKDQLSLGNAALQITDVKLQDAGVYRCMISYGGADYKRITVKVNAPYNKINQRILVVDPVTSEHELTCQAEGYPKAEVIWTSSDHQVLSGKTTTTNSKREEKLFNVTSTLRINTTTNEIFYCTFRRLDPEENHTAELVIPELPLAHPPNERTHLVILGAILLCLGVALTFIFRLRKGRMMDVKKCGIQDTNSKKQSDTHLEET
In short: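 Binding of PE-conjugated human PD-1-Ig (1 nM final) to human PD-L1 stably expressed on a mouse B-cell line (LK35.2) was measured by high-content imaging after washes. Compound and labeled PD-1-Ig were co-incubated 1 h at 37 °C with cells in RPMI/10% FCS.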

| IC50 (Human PD-L1/PD-1) [nM] | IC50 [1] [nM] | Structure (SMILES) |
| --- | --- | --- |
| > 30.5 | > 74.3 | CCCC[C@H]1C(=O)N(C)CC(=O)N[C@@H](CC(=O)O)C(=O)N[C@@H](C(C)C)C(=O)N(C)[C@@H](Cc2ccccc2)C(=O)N[C@@H](Cc2ccc(O)cc2)C(=O)N(C)CC(=O)N[C@@H](Cc2ccc(CN)cc2)C(=O)N[C@@H](Cc2ccc(O)cc2)C(=O)N[C@@H](CC(C)C)C(=O)N[C@H](C(=O)NCC(N)=O)CSCC(=O)N[C@@H](Cc2ccccc2)C(=O)N(C)[C@@H](Cc2ccccc2)C(=O)N1C [Example 3513] ({CH2CO}-F[NMeF][NMeNle][Sar]DV[NMeF]Y[Sar][Phe(4-CH2NH2)]YLCG-NH2; thioether N-13) |
| 6.76 to 30.3 | 4.78 to 72.9 | CCCC[C@H]1C(=O)N(C)CC(=O)N[C@@H](CC(=O)O)C(=O)N[C@@H](C(C)C)C(=O)N(C)[C@@H](Cc2ccccc2)C(=O)N[C@@H](Cc2ccc(O)cc2)C(=O)N(C)CC(=O)N[C@@H](Cc2c[nH]c3ccccc23)C(=O)N[C@@H](Cc2ccc(CN)cc2)C(=O)N[C@@H](CC(C)C)C(=O)N[C@H](C(=O)NCC(N)=O)CSCC(=O)N[C@@H](Cc2ccccc2)C(=O)N(C)[C@@H](Cc2ccccc2)C(=O)N1C [Example 3514] ({CH2CO}-F[NMeF][NMeNle][Sar]DV[NMeF]Y[Sar]W[Phe(4-CH2NH2)]LCG-NH2; thioether N-13) |
| 6.76 to 30.3 | 4.78 to 72.9 | CCCC[C@H]1C(=O)N(C)CC(=O)N[C@@H](CC(=O)O)C(=O)N[C@@H](C(C)C)C(=O)N(C)[C@@H](Cc2ccccc2)C(=O)N[C@@H](Cc2ccc(O)cc2)C(=O)N(C)CC(=O)N[C@@H](Cc2cccc3ccccc23)C(=O)N[C@@H](Cc2ccc(O)cc2)C(=O)N[C@@H](CC(C)C)C(=O)N[C@H](C(=O)NCC(N)=O)CSCC(=O)N[C@@H](Cc2ccccc2)C(=O)N(C)[C@@H](Cc2ccccc2)C(=O)N1C [Example 3515] ({CH2CO}-F[NMeF][NMeNle][Sar]DV[NMeF]Y[Sar][1Nal]YLCG-NH2; thioether N-13) |
| > 30.5 | > 74.3 | CCCC[C@H]1C(=O)N(C)CC(=O)N[C@@H](CC(=O)O)C(=O)N[C@@H](C(C)C)C(=O)N(C)[C@@H](Cc2ccccc2)C(=O)N[C@@H](Cc2ccc(O)cc2)C(=O)N(C)CC(=O)N[C@@H](Cc2c[nH]c3ccccc23)C(=O)N[C@@H](Cc2ccc(O)cc2)C(=O)N[C@@H](CC(C)C)C(=O)N[C@H](C(=O)NCC(N)=O)CSCC(=O)NC(C(C)c2ccccc2)C(=O)N(C)[C@@H](Cc2ccccc2)C(=O)N1C (stereo partly drawn) [Example 3516] ({CH2CO}-[ξPhe(βξ-Me)][NMeF][NMeNle][Sar]DV[NMeF]Y[Sar]WYLCG-NH2; thioether N-13) |
| > 30.5 | > 74.3 | CCCC[C@H]1C(=O)N(C)CC(=O)N[C@@H](CC(=O)O)C(=O)N[C@@H](C(C)C)C(=O)N(C)[C@@H](Cc2ccccc2)C(=O)N[C@@H](Cc2ccc(O)cc2)C(=O)N(C)CC(=O)N[C@@H](Cc2c[nH]c3ccccc23)C(=O)N[C@@H](Cc2ccc(O)cc2)C(=O)N[C@@H](CC(C)C)C(=O)N[C@H](C(=O)NCC(=O)O)CSCC(=O)N[C@@H](Cc2ccccc2)C(=O)N(C)[C@@H](Cc2ccccc2)C(=O)N1C [Example 3517] (HELM PEPTIDE1{[O=C(C[*:3])[*:2]].F.[meF].[CCCC[C@@H](C(=O)[*:2])N(C)[*:1]].[Sar].D.V.[meF].Y.[Sar].W.Y.L.C.G}$PEPTIDE1,PEPTIDE1,1:R3-14:R3$$$V2.0) |
| 6.76 to 30.3 | 4.78 to 72.9 | CCCC[C@H]1C(=O)N(C)CC(=O)N[C@@H](CC(=O)O)C(=O)N[C@@H](C(C)C)C(=O)N(C)[C@@H](Cc2ccccc2)C(=O)N[C@@H](Cc2ccc(O)cc2)C(=O)N(C)CC(=O)N[C@@H](Cc2c[nH]c3ccccc23)C(=O)N[C@@H](Cc2ccc(O)cc2)C(=O)N[C@@H](Cc2ccc(O)cc2)C(=O)N[C@H](C(=O)NCC(N)=O)CSCC(=O)N[C@@H](Cc2ccccc2)C(=O)N(C)[C@@H](Cc2ccccc2)C(=O)N1C [Example 3519] (HELM PEPTIDE1{[O=C(C[*:3])[*:2]].F.[meF].[CCCC[C@@H](C(=O)[*:2])N(C)[*:1]].[Sar].D.V.[meF].Y.[Sar].W.Y.Y.C.G.[am]}$PEPTIDE1,PEPTIDE1,1:R3-14:R3$$$V2.0) |
| 6.76 to 30.3 | 0.158 to 4.71 | CCCC[C@H]1C(=O)N(C)CC(=O)N[C@@H](CC(=O)O)C(=O)N[C@@H](C(C)C)C(=O)N(C)[C@@H](Cc2ccccc2)C(=O)N[C@@H](Cc2ccc(O)cc2)C(=O)N(C)CC(=O)N[C@@H](Cc2c[nH]c3ccccc23)C(=O)N[C@@H](Cc2ccc(O)cc2)C(=O)N[C@@H](CC(C)C)C(=O)N[C@H](C(=O)NCC(N)=O)CSCC(=O)N[C@@H](Cc2ccc(F)cc2)C(=O)N(C)[C@@H](Cc2ccccc2)C(=O)N1C [Example 3520] ({CH2CO}-[Phe(4-F)][NMeF][NMeNle][Sar]DV[NMeF]Y[Sar]WYLCG-NH2; thioether N-13) |
| > 30.5 | > 74.3 | CCCC[C@H]1C(=O)N(C)CC(=O)N[C@@H](CC(=O)O)C(=O)N[C@@H](C(C)C)C(=O)N[C@@H](Cc2ccc(CN)cc2)C(=O)N[C@@H](Cc2ccc(O)cc2)C(=O)N(C)CC(=O)N[C@@H](Cc2c[nH]c3ccccc23)C(=O)N[C@@H](Cc2ccc(O)cc2)C(=O)N[C@@H](CC(C)C)C(=O)N[C@H](C(=O)NCC(N)=O)CSCC(=O)N[C@@H](Cc2ccccc2)C(=O)N(C)[C@@H](Cc2ccccc2)C(=O)N1C [Example 3523] ({CH2CO}-F[NMeF][NMeNle][Sar]DV[Phe(4-CH2NH2)]Y[Sar]WYLCG-NH2; thioether N-13) |
| 6.76 to 30.3 | 0.158 to 4.71 | CCCC[C@H]1C(=O)N(C)CC(=O)N[C@@H](CC(=O)O)C(=O)N[C@@H](C(C)C)C(=O)N(C)[C@@H](Cc2ccccc2)C(=O)N[C@@H](Cc2ccc(CN)cc2)C(=O)N(C)CC(=O)N[C@@H](Cc2c[nH]c3ccccc23)C(=O)N[C@@H](Cc2ccc(O)cc2)C(=O)N[C@@H](CC(C)C)C(=O)N[C@H](C(=O)NCC(N)=O)CSCC(=O)N[C@@H](Cc2ccccc2)C(=O)N(C)[C@@H](Cc2ccccc2)C(=O)N1C [Example 3524] ({CH2CO}-F[NMeF][NMeNle][Sar]DV[NMeF][Phe(4-CH2NH2)][Sar]WYLCG-NH2; thioether N-13) |
| > 30.5 | > 74.3 | CCCC[C@H]1C(=O)N(C)CC(=O)N[C@@H](CC(=O)O)C(=O)N[C@@H](CCC)C(=O)N(C)[C@@H](Cc2ccccc2)C(=O)N[C@@H](Cc2ccc(O)cc2)C(=O)N(C)CC(=O)N[C@@H](Cc2c[nH]c3ccccc23)C(=O)N[C@@H](Cc2ccc(O)cc2)C(=O)N[C@@H](CC(C)C)C(=O)N[C@H](C(=O)NCC(N)=O)CSCC(=O)N[C@@H](Cc2ccccc2)C(=O)N(C)[C@@H](Cc2ccccc2)C(=O)N1C [Example 3525] (HELM PEPTIDE1{[O=C(C[*:3])[*:2]].F.[meF].[CCCC[C@@H](C(=O)[*:2])N(C)[*:1]].[Sar].D.[Nva].[meF].Y.[Sar].W.Y.L.C.G.[am]}$PEPTIDE1,PEPTIDE1,1:R3-14:R3$$$V2.0) |
| 6.76 to 30.3 | 4.78 to 72.9 | CCCC[C@H]1C(=O)N[C@H](CCC(=O)O)C(=O)N[C@@H](CC(=O)O)C(=O)N[C@@H](C(C)C)C(=O)N(C)[C@@H](Cc2ccccc2)C(=O)N[C@@H](Cc2ccc(O)cc2)C(=O)N(C)CC(=O)N[C@@H](Cc2c[nH]c3ccccc23)C(=O)N[C@@H](Cc2ccc(O)cc2)C(=O)N[C@@H](CC(C)C)C(=O)N[C@H](C(=O)NCC(N)=O)CSCC(=O)N[C@@H](Cc2ccccc2)C(=O)N(C)[C@@H](Cc2ccccc2)C(=O)N1C [Example 3527] (HELM PEPTIDE1{[O=C(C[*:3])[*:2]].F.[meF].[CCCC[C@@H](C(=O)[*:2])N(C)[*:1]].[dE].D.V.[meF].Y.[Sar].W.Y.L.C.G.[am]}$PEPTIDE1,PEPTIDE1,1:R3-14:R3$$$V2.0) |
